Consider 16 compounds from ChEMBL document CHEMBL3994585, “Synthesis of α-santonin derivatives for diminutive effect on T and B-cell proliferation and their structure activity relationships” (Eur J Med Chem, 2017).

SMILES strings stand for the structures.

Series [1] deals with B-cell. Briefly: Immunosuppressive activity in Balb/c mouse B cells assessed as LPS-induced cell proliferation at 10 uM after 48 hrs by MTT assay relative to control. It is filed as functional.
Series [2] deals with T-cell. Kind of series: Immunosuppressive activity in Balb/c mouse T cells assessed as ConA-induced cell proliferation at 1 uM after 48 hrs by MTT assay relative to control. It is filed as functional.
Series [3] concerns T-cell. Kind of series: Immunosuppressive activity in Balb/c mouse T cells assessed as ConA-induced cell proliferation at 100 uM after 48 hrs by MTT assay relative to control. The format is functional.
The test system of series [4] is B-cell. Kind of series: Immunosuppressive activity in Balb/c mouse B cells assessed as LPS-induced cell proliferation at 100 uM after 48 hrs by MTT assay relative to control. It is filed as functional.
Series [5] relates to B-cell. Kind of series: Immunosuppressive activity in Balb/c mouse B cells assessed as LPS-induced cell proliferation at 1 uM after 48 hrs by MTT assay relative to control. The format is functional.
The subject of series [6] is T-cell. Briefly: Immunosuppressive activity in Balb/c mouse T cells assessed as ConA-induced cell proliferation at 10 uM after 48 hrs by MTT assay relative to control. It is filed as functional.
Series [7] has as its system T-cell. Kind of series: Cytotoxicity against Balb/c mouse T cells assessed as reduction in cell proliferation at 1 uM after 48 hrs by MTT assay. The format is cell-based.
The test system of series [8] is B-cell. Briefly: Cytotoxicity against Balb/c mouse B cells assessed as reduction in cell proliferation at 10 uM after 48 hrs by MTT assay. The format is cell-based.
The subject of series [9] is B-cell. Briefly: Cytotoxicity against Balb/c mouse B cells assessed as reduction in cell proliferation at 100 uM after 48 hrs by MTT assay. The format is cell-based.
Series [10] deals with T-cell. Briefly: Immunostimulant activity in Balb/c mouse T cells assessed as ConA-induced cell proliferation at 1 uM after 48 hrs by MTT assay relative to control. The format is ADME, cell-based.
In series [11] the test system is B-cell. Kind of series: Immunostimulant activity in Balb/c mouse B cells assessed as LPS-induced cell proliferation at 10 uM after 48 hrs by MTT assay relative to control. It is filed as ADME, cell-based.
Series [12] has as its system T-cell. Kind of series: Cytotoxicity against Balb/c mouse T cells assessed as reduction in cell proliferation at 10 uM after 48 hrs by MTT assay. It is filed as cell-based.
The test system of series [13] is B-cell. Kind of series: Cytotoxicity against Balb/c mouse B cells assessed as reduction in cell proliferation at 1 uM after 48 hrs by MTT assay. The format is cell-based.
In series [14] the test system is T-cell. Kind of series: Cytotoxicity against Balb/c mouse T cells assessed as reduction in cell proliferation at 100 uM after 48 hrs by MTT assay. It is filed as cell-based.
The test system of series [15] is T-cell. Kind of series: Immunostimulant activity in Balb/c mouse T cells assessed as ConA-induced cell proliferation at 10 uM after 48 hrs by MTT assay relative to control. The format is ADME, cell-based.
The test system of series [16] is T-cell. Kind of series: Immunostimulant activity in Balb/c mouse T cells assessed as ConA-induced cell proliferation at 100 uM after 48 hrs by MTT assay relative to control. The format is ADME, cell-based.
Series [17] relates to B-cell. Briefly: Immunostimulant activity in Balb/c mouse B cells assessed as LPS-induced cell proliferation at 1 uM after 48 hrs by MTT assay relative to control. The format is ADME, cell-based.

For `COc1ccc2cc(-n3nncc3COc3cc(C)c4c(c3C)[C@@H]3OC(=O)[C@@H](C)[C@@H]3CC4)ccc2c1`, the Activity with B-cell [1] was -25.64%; in the series on T-cell [2], -93.9%; in the series on T-cell [3] it was -93.9%; with B-cell [4], -94.01%; with B-cell [5] it was -36.75%; with T-cell [6] it was -95.12%.

On to `COc1cccc(NC(=O)[C@H](C)[C@@H]2CCc3c(C)cc(O)c(C)c3C2)c1`, for which the Activity entry in the series on T-cell [7] is “Toxic”; in the series on T-cell [3], -31.86%; in the series on B-cell [8], “Non-Toxic”; with B-cell [4], -13.93%; with B-cell [5], -0.99%; in the series on B-cell [9], “Non-Toxic”. The Activity in the series on T-cell [10] is given as 8.79%; in the series on T-cell [6], -12.63%; in the series on B-cell [11], 3.98%; in the series on T-cell [12], “Non-Toxic”; in the series on B-cell [13], “Toxic”; with T-cell [14], “Non-Toxic”.

On to `CCOC(=O)[C@H](C)c1ccc2c(C)cc(O)c(C)c2c1`, for which the Activity result in the series on T-cell [7] is “Toxic”; with B-cell [8] it was “Toxic”; in the series on B-cell [4] it was -6.41%; with T-cell [15], 39.78%; in the series with B-cell [5] it was -3.84%; with B-cell [9] it was “Toxic”. Moreover, the Activity in the series with T-cell [16] is given as 5.91%; with T-cell [10] it was 15.59%; in the series on B-cell [11], 23.5%; in the series with T-cell [12], “Toxic”; in the series with B-cell [13], “Toxic”; in the series with T-cell [14], “Toxic”.

Take `CCOC(=O)[C@H](C)c1ccc2c(C)cc(O)c(C=O)c2c1`: the Activity entry with T-cell [7] was “Toxic”; with B-cell [1], -5.3%; in the series on B-cell [8], “Toxic”; in the series on B-cell [4], -2.65%; in the series with T-cell [15], 49.48%; in the series on B-cell [9] it was “Toxic”. Besides, the Activity in the series on T-cell [16] was 24.74%; with T-cell [10], 34.02%; with T-cell [12] it was “Toxic”; with B-cell [17] it was 14.15%; in the series on B-cell [13], “Toxic”; with T-cell [14], “Toxic”.

On to `Cc1cc(O)c(C)c2c1CC[C@@H]([C@@H](C)C(=O)Nc1nccc(C)c1[N+](=O)[O-])C2`, for which the Activity result is on record as “Toxic” with T-cell [7]; -26.37% in the series on T-cell [3]; “Toxic” with B-cell [8]; -2.98% in the series on B-cell [4]; 42.85% in the series with T-cell [15]; “Non-Toxic” in the series with B-cell [9]. For the same compound, the Activity in the series with T-cell [10] was 24.72%; with B-cell [11] it was 64.67%; with T-cell [12], “Toxic”; in the series on B-cell [17], 28.35%; in the series with B-cell [13], “Toxic”; in the series with T-cell [14], “Non-Toxic”.

As for `Cc1ccc(NC(=O)[C@H](C)[C@@H]2CCc3c(C)cc(O)c(C)c3C2)cc1O`, the Activity result in the series on T-cell [7] is listed as “Non-Toxic”; in the series on B-cell [8], “Non-Toxic”; with B-cell [4], -29.35%; with T-cell [15], 3.84%; in the series on B-cell [9], “Non-Toxic”; with T-cell [16], 9.89%. In addition, the Activity is 11.53% with T-cell [10]; 11.44% in the series with B-cell [11]; “Non-Toxic” in the series with T-cell [12]; 6.96% in the series with B-cell [17]; “Non-Toxic” in the series on B-cell [13]; “Non-Toxic” with T-cell [14].

Consider `COc1cc(-n2nncc2COc2cc(C)c3c(c2C)[C@@H]2OC(=O)[C@@H](C)[C@@H]2CC3)cc(OC)c1OC`, for which the Activity was -26.31% in the series on B-cell [1]; -20% in the series on T-cell [2]; -16.84% in the series on T-cell [3]; -14.73% in the series on B-cell [4]; -16.84% in the series on B-cell [5]; -14.73% in the series on T-cell [6].

On to `Cc1cc(OCc2cnnn2-c2cccc(I)c2)c(C)c2c1CC[C@H]1[C@H](C)C(=O)O[C@@H]21`, for which the Activity with B-cell [1] was -20%; with T-cell [2] it was -15.79%; with T-cell [3], -3.15%; in the series with B-cell [4] it was -15.79%; with B-cell [5] it was -15.79%; in the series with T-cell [6] it was -20%.

With `CCOC(=O)[C@H](C)c1ccc2c(C)cc(OC)c(C)c2c1`, the Activity entry with T-cell [7] is “Non-Toxic”; in the series on B-cell [1] it was -23.07%; in the series on T-cell [2] it was -31.61%; in the series on T-cell [3], -5.88%; in the series with B-cell [8], “Toxic”; in the series with B-cell [4], -25.82%. Also, the Activity in the series with B-cell [5] is -40.1%; with B-cell [9], “Toxic”; in the series on T-cell [6], -37.5%; in the series with T-cell [12], “Toxic”; with B-cell [13], “Non-Toxic”; with T-cell [14], “Toxic”.

In the case of `Cc1c(N)c(O)c(C)c2c1CC[C@H]1[C@H](C)C(=O)O[C@@H]21`, the Activity result with T-cell [7] is on record as “Toxic”; in the series on B-cell [8] it was “Toxic”; with B-cell [4] it was -16.66%; with T-cell [15], 36.02%; with B-cell [9], “Toxic”; in the series with T-cell [16], 5.91%. Moreover, the Activity is given as 13.97% in the series on T-cell [10]; 33.33% in the series with B-cell [11]; “Toxic” in the series with T-cell [12]; 17.52% in the series with B-cell [17]; “Toxic” in the series with B-cell [13]; “Toxic” in the series with T-cell [14].

Regarding `Cc1cc(OCc2cnnn2-c2ccc3c(c2)OCO3)c(C)c2c1CC[C@H]1[C@H](C)C(=O)O[C@@H]21`, the Activity in the series on B-cell [1] is given as -50.52%; in the series with T-cell [2], -29.47%; with T-cell [3] it was -29.47%; in the series with B-cell [4], -32.63%; in the series on B-cell [5] it was -14.73%; in the series on T-cell [6], -45.26%.

Consider `Cc1cc(O)c(C)c2c1CC[C@@H]([C@@H](C)C(=O)N1CCOCC1)C2`, for which the Activity result is on record as “Non-Toxic” in the series with T-cell [7]; -21.42% in the series on T-cell [3]; “Non-Toxic” with B-cell [8]; -2.98% with B-cell [4]; 12.08% in the series with T-cell [15]; -4.97% in the series with B-cell [5]. The Activity entry with B-cell [9] is reported as “Non-Toxic”; in the series on T-cell [10], 8.79%; in the series with B-cell [11], 14.92%; in the series with T-cell [12], “Non-Toxic”; in the series with B-cell [13], “Non-Toxic”; with T-cell [14] it was “Non-Toxic”.

As to `Cc1cc(OCc2cnnn2-c2ccc(C=O)cc2)c(C)c2c1CC[C@H]1[C@H](C)C(=O)O[C@@H]21`, the Activity in the series with B-cell [1] is -22.5%; with T-cell [2], -5.83%; in the series on T-cell [3], -20.83%; with B-cell [4] it was -35%; in the series with B-cell [5], -24.16%; in the series with T-cell [6] it was -6.66%.

Consider `CC1=C(Cl)C=C[C@]2(C)CC[C@@H]3C(=C12)OC(=O)[C@H]3C`, for which the Activity entry with T-cell [7] is listed as “Toxic”; in the series on T-cell [2], -5.15%; with B-cell [8], “Toxic”; in the series on B-cell [4] it was -4.42%; in the series with T-cell [15], 16.49%; with B-cell [5] it was -8.84%. The Activity result in the series with B-cell [9] was “Toxic”; with T-cell [16], 9.27%; with B-cell [11] it was 7.96%; with T-cell [12], “Toxic”; in the series on B-cell [13] it was “Toxic”; in the series on T-cell [14] it was “Toxic”.

For `Cc1ccc(I)cc1-n1nncc1COc1cc(C)c2c(c1C)[C@@H]1OC(=O)[C@@H](C)[C@@H]1CC2`, the Activity was -14.73% in the series on B-cell [1]; -13.68% in the series on T-cell [2]; -23.15% in the series with T-cell [3]; -16.84% with B-cell [4]; -34.73% in the series with B-cell [5]; -26.31% with T-cell [6].

For the compound `CC(=O)Nc1ccc(-n2nncc2COc2cc(C)c3c(c2C)[C@@H]2OC(=O)[C@@H](C)[C@@H]2CC3)cc1`, the Activity in the series with B-cell [1] was -36.84%; with T-cell [2] it was -28.42%; with T-cell [3] it was -6.31%; in the series on B-cell [4], -8.42%; in the series on B-cell [5], -44.21%; in the series with T-cell [6], -29.47%.
